{"source": "patent US20230114207A1", "about": "“THE COMBINATION OF CYCLIN DEPENDENT KINASE 7 INHIBITOR AND IMMUNOTHERAPY FOR TREATMENT OF CANCER” (Dana-Farber Cancer Institute, Inc., priority 2019, published 2023)", "key": {"DMS79 cells": {"tested_on": "DMS79 cells", "assay": "BrdU analysis", "type": "cell-based, human", "conditions": "100 nM, 24 and 48 hour", "protocol": "Cells were seeded in 6-well plates (0.5-1×10^6 cells/well) in media and treated with YKL-5-124 at indicated concentrations and time points. Prior to collection, cells were pulsed with […] BrdU (BD Biosciences, #559619) for 2-4 hr (depending on cell line doubling time) and collected by centrifugation. Hereafter cells were permeabilized, fixated and stained according to BrdU kit instruction (BD Biosciences, Cat #559619). Cells were gated for BrdU incorporation (FITC) and 7-aminoactinomycin D (7-AAD) to quantify cells in G1, S (BrdU positive) and G2/M."}, "[1]": {"tested_on": "Tnf, Cxcl10 and Cxcl9 in RPP631", "assay": "RT-qPCR of Tnf, Cxcl10 and Cxcl9", "type": "cell-based, mouse", "conditions": "after 48 hr", "protocol": "Cell pellets were collected and then subjected to total RNA extraction using RNeasy Plus Mini Kit (QIAGEN, Cat #74136) according to the manufacturer's instructions, or using TRIzol:Chloroform phase-separation by centrifugation followed by RNA precipitation using isopropanol. The extracted RNA was reversely transcribed into cDNA using the High-Capacity RNA-to-cDNA™ Kit (Thermo Fisher Scientific, Cat #4387406) according to the manufacturer's instructions. The obtained cDNA samples were diluted and used for RT-qPCR. PowerUp™ SYBR™ Green Master Mix (Thermo Fisher Scientific, Cat #A25742) or TaqMan Gene Expression Master Mix (Life Technologies, Cat #4369514). Gene specific primers with sequences listed in Table 3 were used for PCR amplification and detection on the StepOnePlus™ Real-Time PCR System (Thermo Fisher Scientific). RT-qPCR data were normalized to Actb (mouse cells) or GUSB (human cells) and presented as fold changes of gene expression in the test sample compared to the control."}, "CDK7": {"target": "T1, CDK7 (Mus musculus, UniProt Q03147)", "T1 construct": "from tissue", "T1 sequence (Q03147 2-346 limits assumed)": "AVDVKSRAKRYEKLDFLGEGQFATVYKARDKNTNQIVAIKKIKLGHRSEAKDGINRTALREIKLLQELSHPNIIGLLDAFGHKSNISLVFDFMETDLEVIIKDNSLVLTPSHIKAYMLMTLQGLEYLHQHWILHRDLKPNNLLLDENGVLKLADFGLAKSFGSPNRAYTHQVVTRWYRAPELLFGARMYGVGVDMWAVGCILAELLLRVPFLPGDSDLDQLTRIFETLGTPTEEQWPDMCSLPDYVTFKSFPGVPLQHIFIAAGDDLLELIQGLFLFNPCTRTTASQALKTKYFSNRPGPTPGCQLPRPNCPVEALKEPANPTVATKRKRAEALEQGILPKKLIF", "T1 sequence (Q61458 whole entry partner)": "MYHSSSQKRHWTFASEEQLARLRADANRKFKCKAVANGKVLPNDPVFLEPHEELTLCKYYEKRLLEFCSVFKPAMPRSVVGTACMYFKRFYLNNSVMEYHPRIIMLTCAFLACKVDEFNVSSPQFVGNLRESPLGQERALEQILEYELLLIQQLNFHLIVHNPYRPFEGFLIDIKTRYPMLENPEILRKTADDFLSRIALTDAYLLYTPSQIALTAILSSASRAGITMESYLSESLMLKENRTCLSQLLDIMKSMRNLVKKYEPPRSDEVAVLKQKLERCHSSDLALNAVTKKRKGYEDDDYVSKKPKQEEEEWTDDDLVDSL", "T1 sequence (P51949 whole entry partner)": "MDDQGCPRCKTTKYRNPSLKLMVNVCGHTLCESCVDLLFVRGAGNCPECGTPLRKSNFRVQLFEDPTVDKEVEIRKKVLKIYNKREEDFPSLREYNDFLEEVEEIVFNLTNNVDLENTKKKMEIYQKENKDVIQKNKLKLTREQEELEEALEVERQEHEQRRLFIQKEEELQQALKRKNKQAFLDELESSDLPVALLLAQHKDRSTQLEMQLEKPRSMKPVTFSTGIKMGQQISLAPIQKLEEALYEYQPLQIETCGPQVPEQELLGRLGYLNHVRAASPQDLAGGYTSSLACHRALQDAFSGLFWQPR", "assay": "In vivo target engagement by competitive pulldown assay", "conditions": "10 mg/kg", "protocol": "Bio-THZ1 pulldown experiments followed by western blotting of enriched proteins was performed as described in Kwiatkowski, et al., Nature, 2014, 511, 616-620. Briefly, cells were treated with YKL-5-124 or DMSO for 6 hr (in vitro) or 72 hr (in vivo). Following treatment, cells were washed twice with cold PBS and then lysed in the following lysis buffer: 50 mM TrisHCI pH 8.0, 150 mM NaCl, 1% NP-40, 5 mM EDTA, 1 mM DTT, and protease/phosphatase cocktails. Following clearance, lysates were treated with biotinylated THZ1 for pulldown overnight at 4° C. Lysates were further incubated at room temperature for 3 hr to increase the efficiency of covalent bond formation. Lysates were then incubated with streptavidin agarose for pulldown for an additional 2-3 hr at 4° C. Agarose beads were washed 5 times with lysis buffer and then boiled in 2×SDS at 95° C. SDS-page resolved precipitated proteins were probed for the indicated proteins."}}}
{"smiles": "C=CC(=O)Nc1ccc(C(=O)Nc2n[nH]c3c2CN(C(=O)N[C@H](CN(C)C)c2ccccc2)C3(C)C)cc1", "note": "[YKL-5-124]", "values": [{"measurement": "BrdU-incorporated S-phase cells", "setting": "DMS79 cells", "result": "significant decrease"}, {"measurement": "tumor cell expression of Tnf, Cxcl10 and Cxcl9", "setting": "[1]", "result": "significantly stimulated"}, {"measurement": "target engagement in tumor-bearing mice", "setting": "CDK7", "result": "further confirmed"}]}
